Assay results as given in the NIST ThermoML archive (doi:10.1021/je300240k).
Values joined by “and” are separate entries in the source; they are usually repeats but may differ in a detail not shown here. Equal values may be shown once.

Conditions: Liquid, Ebulliometric method (Recirculating still)

F/C=C/C(F)(F)F [trans-1,3,3,3-tetrafluoropropene]
Conditions	vapor or sublimation pressure
223.1 K	21 kPa
228.08 K	28 kPa
232.99 K	36 kPa
238.04 K	47 kPa
243.02 K	61 kPa
248.04 K	77 kPa
253.02 K	96 kPa
257.14 K	115 kPa
258.04 K	119 kPa
259.15 K	125 kPa
261.15 K	136 kPa
263.1 K	147 kPa
263.15 K	147 kPa
265.15 K	160 kPa
267.15 K	173 kPa
268.01 K	178 kPa
269.15 K	186 kPa
271.15 K	201 kPa
273.06 K	216 kPa
273.15 K	216 kPa
275.15 K	233 kPa
277.15 K	250 kPa
278.01 K	258 kPa
279.15 K	269 kPa
281.15 K	288 kPa
282.93 K	306 kPa
283.15 K	308 kPa
285.15 K	330 kPa
287.15 K	352 kPa
287.89 K	361 kPa
289.15 K	376 kPa
291.15 K	401 kPa
292.85 K	423 kPa
293.15 K	427 kPa
295.15 K	455 kPa
297.15 K	484 kPa
297.69 K	492 kPa
297.87 K	495 kPa
298.77 K	508 kPa
299.15 K	514 kPa
301.15 K	546 kPa
303.15 K	579 kPa
303.68 K	588 kPa
305.15 K	614 kPa and 613 kPa
307.15 K	649 kPa
308.82 K	681 kPa
309.15 K	687 kPa
311.15 K	726 kPa
312.85 K	761 kPa
313.15 K	767 kPa
315.15 K	810 kPa
317.15 K	854 kPa
317.75 K	868 kPa
319.15 K	900 kPa
321.15 K	948 kPa
323.1 K	997 kPa
323.15 K	998 kPa
325.15 K	1050 kPa
327.15 K	1104 kPa
328.12 K	1130 kPa
329.15 K	1160 kPa
331.15 K	1218 kPa
333.11 K	1276 kPa
333.15 K	1278 kPa
335.15 K	1340 kPa
337.15 K	1405 kPa
338.11 K	1436 kPa
339.15 K	1472 kPa
341.15 K	1541 kPa
343.1 K	1610 kPa
343.15 K	1613 kPa
348.09 K	1799 kPa
353.08 K	2005 kPa
